Measurements published in patent US11850213B2, “Ophthalmic compositions of rifamycins and uses thereof” (AMD THERAPEUTICS LLC, priority 2014, dated 2023).
Converted amounts (≈) assume the structure as drawn. Like-named read-outs stand apart in the source and are kept apart here.

How the values were obtained:
[1] = Rabbit, 0.5% 50 microL, 250 micro g, Sigurdsson et al (2007); cited from earlier work
[2] = PK study, retina exposure after 0.25% rifampicin eye drop, LC/MS; assay type: in vivo, Sprague-Dawley rats; details: male, Sprague-Dawley, 37.5 micro gram, rat
Description: 15 microL of an eye drop formulation which is presented as Example 1A listed in Table 1 was used to dose the compound to a single eye of a rat. […] At time points of 1 hr, 3 hr, and 7 hr after the eye drop application, retina tissues were extracted from the rats under a dissection microscope. In addition, “Non-treatment” negative control was taken, and retina was extracted from a single rat without any treatment. Retinas were placed in a 1.5 ml microcentrifuge tubes (1 retina/tube), and they were extensively washed by DPBS. After the washing procedure, retina tissue in a microcentrifuge tube was frozen in dry ice, and it was stored for quantification by LC/MS analysis.

[3] = Retina exposure of rifampicin after subcutaneous injection, LC/MS; assay type: in vivo, Sprague-Dawley rats; details: male, Sprague-Dawley, rat, SC injection 20 mg/Kg (Example 6A), n = 4
Description: At time points of 1 hr, 3 hr, and 7 hr after the SC injection, retina tissues were extracted from the rats under a dissection microscope. In addition, “Non-treatment” negative control was taken, and retina was extracted from two rats without any treatment. Retinas were placed in a 1.5 ml microcentrifuge tubes (1 retina/tube), and they were extensively washed by DPBS. After the washing procedure, retina tissue in a microcentrifuge tube was frozen in dry ice, and it was stored for quantification by LC/MS analysis. […] Amounts detected in retina by the SC injection were equivalent to those delivered by the eye drop application (See Table 3).

[4] = Retina exposure of rifampicin after topical eye drops (3 or 10 drops), LC/MS; assay type: in vivo, Sprague-Dawley rats; details: Rat, 0.25%
Description: The remaining two rats received the same applications, but 10 drops, to each eye under isoflurane sedation. A single drop contained 5 micro L of the formulation, and applications of each drop had 30 min interval. After the eye drop application, retinas were extracted under a dissection microscope. In addition, “Non-treatment” negative control was taken, and retina was extracted from two rats without any treatment. Retinas were placed in a 1.5 ml microcentrifuge tubes (1 retina/tube), and they were extensively washed by DPBS. After the washing procedure, retina tissue in a microcentrifuge tube was frozen in dry ice, and it was stored for quantification by LC/MS analysis.

[5] = Dose-response study, retina exposure after 0.25% and 0.5% rifampicin eye drops, LC/MS; assay type: in vivo, Sprague-Dawley rats; details: male, Sprague-Dawley, rat, topical
Description: 15 microL of eye drop formulations which are presented as Example 1A and 6A listed in Table 1 and Table 2, respectively, were used to dose the compound to a single eye of a rat. […] In 1 hr after the eye drop application, retina tissues were extracted from the rats under a dissection microscope. In addition, “Non-treatment” negative control was taken, and retina was extracted from a single rat without any treatment. Retinas were placed in a 1.5 ml microcentrifuge tubes (1 retina/tube), and they were extensively washed by DPBS. After the washing procedure, retina tissue in a microcentrifuge tube was frozen in dry ice, and it was stored for quantification by LC/MS analysis.

[6] = Solubility of AMD101 in H2O; assay type: physicochemical; details: water
Description: In H2O, the AMD101 can dissolve at approximately 1.4 mg/ml only. However, the concentration was increased as provided herein employing suitable excipients. Those formulations are stable for weeks.

| SMILES | Drug amount detected in retina [1] | Tmax ([2]; topical or ocular, 0.25% eye drop 15 microL) [h] | concentration at 1 hr ([2]; topical, 0.25% eye drop 15 microL (Example 1A), 1 hr, n = 4) [ng/g] | concentration at 3 hr ([2]; topical, 0.25% eye drop 15 microL (Example 1A), 3 hr, n = 4) [ng/g] | concentration at 7 hr ([2]; topical, 0.25% eye drop 15 microL (Example 1A), 7 hr, n = 4) [ng/g] | concentration at 1 hr ([3]; 1 hr) [ng/g] | concentration at 3 hr ([3]; 3 hr) [ng/g] | concentration at 7 hr ([3]; 7 hr) [ng/g] | Drug amount detected in retina ([4]; 3 drops (15 microL, 37.5 micro g)) | Drug amount detected in retina ([4]; 10 drops (50 microL, 125 micro g)) | concentration at 1 hr ([5]; 37.5 micro gram) [ng/g] | concentration at 1 hr ([5]; 75 micro gram) [ng/g] | solubility [6] [µg/mL] |
| --- | --- | --- | --- | --- | --- | --- | --- | --- | --- | --- | --- | --- | --- |
| C[C@@H]1C[C@H]2[C@@H]3CCC4=CC(=O)C=C[C@]4(C)[C@@]3(F)[C@@H](O)C[C@]2(C)[C@@]1(O)C(=O)CO [Dexamethasone] | ~33 ng/g retina ng/g retina tissue |  |  |  |  |  |  |  |  |  |  |  |  |
| CO[C@H]1/C=C/O[C@@]2(C)Oc3c(C)c(O)c4c(O)c(c(/C=N/N5CCN(C)CC5)c(O)c4c3C2=O)NC(=O)/C(C)=C\C=C\[C@H](C)[C@H](O)[C@@H](C)[C@@H](O)[C@@H](C)[C@H](OC(C)=O)[C@@H]1C [Rifampicin] |  | ~1 | 1580 | 1150 | 104 | 2660 | 3860 | 2520 | ~1,288 ng/g retina ng/g retina tissue | ~2,939 ng/g retina ng/g retina tissue | 1580 | 6070 | ~1400 (≈ 1700 µM) |
